Our source for the ILS and Astrocyte reversal values is ChEMBL document CHEMBL1123608, “In vivo antitumor activity of 6-benzyl-1,3-benzodioxole derivatives against the P388, L1210, B16, and M5076 murine models” (1987).

Experiment [1] has as its system Mus musculus. The experiment is described as follows: In vivo antitumor activity against the L1210 leukemia cell line expressed as percent increase in life span at 400 mg/kg dose. The experiment is classed as functional.
Experiment [2] deals with Mus musculus. The experiment in a line: In vivo antitumor activity against the L1210 leukemia cell line expressed as percent increase in life span at 200 mg/kg dose. The following applies: Mus musculus, L1210, dose 200 mg/kg. The experiment is classed as functional.
In experiment [3] the test system is Mus musculus. The experiment in a line: The percent increase in life span on P388 cells which were inoculated intraperitoneally in CD2F1 mice at 800 mg/kg dose placed at ranking order 2. The experiment is classed as functional. The following applies: P388, ip, route intraperitoneal.
The subject of experiment [4] is Mus musculus. The experiment in a line: In vivo antitumor activity against the B16 melanoma cell line expressed as percent increase in life span at 200 mg/kg dose. The experiment is classed as functional.
Experiment [5] is described as follows: Ability to inhibit the dibutyryl-cAMP-induced change of an immature glioma cell to a mature, differentiated astrocyte by in vitro astrocytoma assay at 100 ug/mL dose (Experiment #2) value may range from 31 to 50. The experiment is classed as functional, Mus musculus.
A short description of experiment [6]: Ability to inhibit the dibutyryl-cAMP-induced change of an immature glioma cell to a mature, differentiated astrocyte by in vitro astrocytoma assay at 10 ug/mL dose (Experiment #1) value may range from 6 to 15. The experiment is classed as functional, Mus musculus.
For experiment [7], the system named is Mus musculus. The experiment in a line: The percent increase in life span on P388 cells which were inoculated intraperitoneally in CD2F1 mice at 200 mg/kg dose placed at ranking order 1. The experiment is classed as functional. Conditions: P388, ip, route intraperitoneal.
Experiment [8] is described as follows: Ability to inhibit the dibutyryl-cAMP-induced change of an immature glioma cell to a mature, differentiated astrocyte by in vitro astrocytoma assay at 1 ug/mL dose (Experiment #1) value may range from 0 to 5. The experiment is classed as functional, Mus musculus.
Experiment [9] deals with Mus musculus. The experiment in a line: Percent increase in life span (ILS) was measured on P388 cells which were inoculated intraperitoneally in CD2F1 mice. The experiment is classed as functional.
Experiment [10] in a line: Ability to inhibit the dibutyryl-cAMP-induced change of an immature glioma cell to a mature, differentiated astrocyte by in vitro astrocytoma assay at 1 ug/mL dose (Experiment #2) value may range from 0 to 5. The experiment is classed as functional, Mus musculus.
In experiment [11] the test system is Mus musculus. The experiment in a line: In vivo antitumor activity against the B16 melanoma cell line expressed as percent increase in life span at 100 mg/kg dose. The experiment is classed as functional.
Experiment [12] relates to Mus musculus. The experiment is described as follows: In vivo antitumor activity against the M5076 reticulum cell sarcoma expressed as percent increase in life span at 400 mg/kg dose. The experiment is classed as functional.
Experiment [13] has as its system Mus musculus. The experiment is described as follows: In vivo antitumor activity against the M5076 reticulum cell sarcoma expressed as percent increase in life span at 800 mg/kg doseEach represents a pair of experiments performed with the same control group. The experiment is classed as functional.
Experiment [14] can be described thus: Ability to inhibit the dibutyryl-cAMP-induced change of an immature glioma cell to a mature, differentiated astrocyte by in vitro astrocytoma assay at 10 ug/mL dose (Experiment #2) value may range from 31 to 50. The experiment is classed as functional, Mus musculus.
Experiment [15] in a line: Ability to inhibit the dibutyryl-cAMP-induced change of an immature glioma cell to a mature, differentiated astrocyte by in vitro astrocytoma assay at 100 ug/mL dose (Experiment #1) value may range from 51 to 70. The experiment is classed as functional, Mus musculus.
The test system of experiment [16] is Mus musculus. The experiment is described as follows: The percent increase in life span on P388 cells which were inoculated intraperitoneally in CD2F1 mice at 400 mg/kg (tested in the same control) dose placed at ranking order 4. The experiment is classed as functional. The following applies: P388, ip, route intraperitoneal.
The subject of experiment [17] is Mus musculus. The experiment is described as follows: The percent increase in life span on P388 cells which were inoculated intraperitoneally in CD2F1 mice at 200 mg/kg dose placed at ranking order 3. Conditions: P388, ip, route intraperitoneal. The experiment is classed as functional.
Experiment [18] has as its system Mus musculus. The experiment is described as follows: The percent increase in life span on P388 cells which were inoculated intraperitoneally in CD2F1 mice at 200 mg/kg dose placed at ranking order 2. The experiment is classed as functional. Conditions: P388, ip, route intraperitoneal.
For experiment [19], the system named is Mus musculus. The experiment in a line: The percent increase in life span on P388 cells which were inoculated intraperitoneally in CD2F1 mice at 400 mg/kg dose placed at ranking order 4. The following applies: P388, ip, route intraperitoneal. The experiment is classed as functional.
In experiment [20] the test system is Mus musculus. The experiment is described as follows: The percent increase in life span on P388 cells which were inoculated intraperitoneally in CD2F1 mice at 400 mg/kg (tested in the same control) dose placed at ranking order 1. The following applies: P388, ip, route intraperitoneal. The experiment is classed as functional.
Experiment [21] concerns Mus musculus. The experiment is described as follows: The percent increase in life span on P388 cells which were inoculated intraperitoneally in CD2F1 mice at 400 mg/kg dose placed at ranking order 3. The experiment is classed as functional. Conditions: P388, ip, route intraperitoneal.

The term ILS denotes how much longer treated animals lived than controls. Read a high ILS as a large benefit in survival. Consider `C=CCOc1cc2c(cc1C(C)c1ccc(OC)cc1)OCO2` (configuration not stated), for which the ILS at 400 mg/kg in [1] amounted to 39%; in experiment [12] it was 33%; in experiment [16] it was 39%. Also, the ILS at 200 mg/kg in experiment [2] came out at 43%; in [4], 55%; in experiment [7] it was 88%; in experiment [17], 41%. Further, the values for the increase in life span (ILS) at 800 mg/kg in experiment [3] and in [13] were 84% and 58%, respectively. In addition, the Astrocyte reversal in [5] was determined as 50%; in experiment [6], 15%; in experiment [8] it was 5%; in experiment [10] it was 5%; in [14] it was 50%; in [15], 70%. Also, the ILS in [9] amounted to 88%. The increase in lifespan (ILS) at 100 mg/kg in [11] was 27%.

In turn, `CCCOc1cc2c(cc1C(C)c1ccc(OC)cc1)OCO2` (configuration not stated) had an ILS in [9] of 30%. The molecule further showed an increase in lifespan (ILS) at 200 mg/kg in experiment [18] of 21%. Further, the results for the increase in lifespan (ILS) at 400 mg/kg in experiment [19], in [20] and in experiment [21] were 12%, 30% and 14%, respectively.
